In ChEMBL document CHEMBL1125505, “Nucleosides and nucleotides. 112. 2-(1-Hexyn-1-yl)adenosine-5'-uronamides: a new entry of selective A2 adenosine receptor agonists with potent antihypertensive activity” (J Med Chem, 1992):

How the values were obtained:
Adenosine A2 receptor = Adenosine A2 receptor (Rattus norvegicus, UniProt P29276+P30543); format: protein assay
Rattus norvegicus [1] = test: Dose producing 10% decrease in heart rate of anesthetized spontaneously hypertensive rats (SHR's); format: functional
Rattus norvegicus [2] = test: Dose producing 30% decrease in blood pressure of anesthetized spontaneously hypertensive rats (SHR's); format: functional
Adenosine receptor A1 = molecular target: T1, Adenosine receptor A1 (Rattus norvegicus, UniProt P25099); test: Binding affinity against adenosine A1 receptor from rat brain membranes using [3H]cyclohexyladenosine as radioligand.
T1 sequence (P25099 whole entry): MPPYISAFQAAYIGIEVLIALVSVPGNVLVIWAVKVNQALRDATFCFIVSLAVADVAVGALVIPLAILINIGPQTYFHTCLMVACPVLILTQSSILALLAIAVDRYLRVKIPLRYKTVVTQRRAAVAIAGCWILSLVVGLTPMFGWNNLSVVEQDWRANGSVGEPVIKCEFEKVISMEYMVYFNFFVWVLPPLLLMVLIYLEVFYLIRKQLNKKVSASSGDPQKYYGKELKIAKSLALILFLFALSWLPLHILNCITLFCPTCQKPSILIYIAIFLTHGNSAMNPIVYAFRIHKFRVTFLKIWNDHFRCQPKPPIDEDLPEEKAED

Row | Ki (Adenosine A2 receptor) [nM] | Ki (Adenosine receptor A1) [nM] | Structure (SMILES) | ED10 (Rattus norvegicus [1]) [µg/kg] | ED30 (Rattus norvegicus [2]) [µg/kg]
1 | 6.1 | 117 | CCCCCCC#Cc1nc(N)c2ncn([C@@H]3O[C@H](CO)[C@@H](O)[C@H]3O)c2n1 | > 100 | 0.35
2 | 5.2 | 217 | CCCCC#Cc1nc(N)c2ncn([C@@H]3O[C@H](CCl)[C@@H](O)[C@H]3O)c2n1 | > 3 | > 3
3 | – | 103 | CCCCC#Cc1nc(N)c2ncn([C@@H]3O[C@H](CO)[C@@H](O)[C@H]3O)c2n1 | 70.4 | 0.11
4 | 4.8 | 276 | CCCCC#Cc1nc(N)c2ncn([C@@H]3O[C@H](C(=O)NCC)[C@@H](O)[C@H]3O)c2n1 | > 100 | 0.3
5 | 11 | 1780 | CCCCC#Cc1nc(N)c2ncn(C3O[C@H](C(=O)NC)[C@@H](O)[C@H]3O)c2n1 (some centres undefined) | > 100 | 0.51
6 | > 181 | > 472 | CCCCC#Cc1nc(N)c2ncn(C3O[C@H](CNC(C)=O)[C@@H](O)[C@H]3O)c2n1 (some centres undefined) | > 100 | > 100
7 | > 181 | > 472 | CCCCC#Cc1nc(N)c2ncn(C3O[C@H](CNC(=O)NC)[C@@H](O)[C@H]3O)c2n1 (some centres undefined) | > 100 | > 100
8 | > 181 | > 472 | CCCCC#Cc1nc(N)c2ncn(C3O[C@H](CNC=O)[C@@H](O)[C@H]3O)c2n1 (some centres undefined) | > 100 | > 100
9 | > 181 | > 472 | CCCCC#Cc1nc(N)c2ncn(C3O[C@H](CNS(C)(=O)=O)[C@@H](O)[C@H]3O)c2n1 (some centres undefined) | > 100 | > 100

Further lines, the compound ahead of its results:

Row | Structure (SMILES) | Ki (Adenosine A2 receptor) [nM] | Ki (Adenosine receptor A1) [nM] | ED10 (Rattus norvegicus [1]) [µg/kg] | ED30 (Rattus norvegicus [2]) [µg/kg]
10 | Nc1nc(Nc2ccccc2)nc2c1ncn2[C@@H]1O[C@H](CO)[C@@H](O)[C@H]1O | 83 | – | > 100 | 6.1
11 | COc1cc(OC)cc(C(CNc2ncnc3c2ncn3[C@@H]2O[C@H](CO)[C@@H](O)[C@H]2O)c2ccccc2C)c1 (some centres undefined) | 4.6 | 64 | > 100 | 12.3
12 | CCCCC#Cc1nc(N)c2ncn([C@@H]3O[C@H](C(N)=O)[C@@H](O)[C@H]3O)c2n1 | 19 | 1270 | > 100 | 0.18
13 | CCCCC#Cc1nc(N)c2ncn([C@@H]3O[C@H](C(=O)NCCCC)[C@@H](O)[C@H]3O)c2n1 | 169 | 1930 | > 100 | 26.4
14 | CCCCC#Cc1nc(N)c2ncn([C@@H]3O[C@H](C(=O)NC4CC4)[C@@H](O)[C@H]3O)c2n1 | 2.6 | 136 | 40.7 | 0.17
15 | CCCCC#Cc1nc(N)c2ncn(C3O[C@H](C/N=C(\S)NC)[C@@H](O)[C@H]3O)c2n1 (some centres undefined) | > 181 | > 472 | > 100 | 54.5
16 | CCCCC#Cc1nc(N)c2ncn(C3O[C@H](C(=O)NCCC)[C@@H](O)[C@H]3O)c2n1 (some centres undefined) | 44 | 1810 | > 100 | 2.88
17 | CCNC(=O)[C@H]1O[C@@H](n2cnc3c(N)nc(NCCc4ccc(CCC(=O)O)cc4)nc32)[C@H](O)[C@@H]1O [CGS-21680] | – | – | > 100 | 0.83
18 | CC(=O)O[C@]1(C(C)=O)CC[C@H]2[C@@H]3C=C(Cl)C4=CC(=O)[C@@H]5C[C@@H]5[C@]4(C)[C@H]3CC[C@@]21C [CYPROTERONE ACETATE] | 336 | – | 0.17 | 0.53
19 | CCNC(=O)[C@H]1O[C@@H](n2cnc3c(N)ncnc32)[C@H](O)[C@@H]1O [NECA] | – | – | 0.35 | 0.23
